Experimental data taken from patent US7732609B2, “5-(arylsulfonyl)-pyrazolopiperidines” (Elan Pharmaceuticals, Inc., priority 2005, dated 2010).

The compounds below were run against T1, gamma-secretase (Homo sapiens, UniProt P49768) (assay: Gamma-secretase APP enzyme assay (MBP-C125 Swe cleavage at Aβ40 site, sandwich ELISA)). Settings: IMR-32 cell membrane extract as enzyme; MBP-C125swe substrate; 2 h at 37° C; read-out: γAPP.
T1 construct: The assay used a partially purified extract of IMR-32 cell membranes as the gamma-secretase enzyme preparation; endogenous in cells; host or cells: IMR-32 cell membranes (partially purified extract)
Format: biochemical
From the text: The gamma-secretase APP enzyme assay was designed to measure the specific proteolytic cleavage of an APP substrate (MBP-C125 Swe fusion protein) at the Aβ40 site. The assay used a partially purified extract of IMR-32 cell membranes as the gamma-secretase enzyme preparation and a recombinant fusion protein containing the C-terminal 125 amino acids of the Swedish variant of the APP (MBP-C125swe) as the substrate. This assay involved two steps beginning with the enzymatic reaction generating a cleavage product that was captured with an immobilized antibody specific for the neo-epitope Aβ40 site. The captured cleavage product was then detected in a sandwich ELISA assay with a biotinylated reporter antibody that is specific to Aβ (17-28). Streptavidin-linked alkaline phosphatase was then added that would generate a fluorescent signal proportional to the amount of cleavage product. This assay was used to discover small molecule inhibitors of gamma-secretase.
Briefly, a 149 mg/ml solution of BIGCHAP detergent was made with water at 42° C. and then rotated for 30 minutes at the same temperature. This warmed solution of BigCHAPS(N,N-Bis(3-D-gluconamidopropyl)cholamide) detergent was used to dissolve Brain Extract Type-V (lipid containing a minimum of 40% phosphatidylethanolamine) from Sigma (St. Louis, Mo.) to a concentration of 8 mg/ml. This solution containing BigCHAPS and lipid at 8 mg/ml is then diluted to 0.53 mg/ml lipid with a pre-warmed solution of Hepes and sodium chloride. This final solution containing Hepes buffer, sodium chloride, BigCHAPS detergent and lipid is used to create working solutions of both gamma-secretase (25 Units) and the MBP-C125 substrate (0.05 mg/ml).
Gamma-secretase was then added to a 96-well micro-titre plate and then incubated with various concentrations of inhibitor for 30 minutes at 37° C. MBPC125 substrate was then added to initiate the reaction that would run for two hours at 37° C. The reaction was quenched with the addition of SDS to a final concentration of 0.1% and then 100 μl of the reaction mixture was transferred to a capture ELISA plate and incubated overnight at 4° C. Detection of the cleavage product was performed using a standard sandwich ELISA assay and quantified using a six point standard curve.

| Structure (SMILES) | IC50 [nM] |
| --- | --- |
| O=S(=O)(c1ccc(Cl)cc1)N1Cc2c[nH]nc2CC1c1cncnc1 (single isomer, unassigned) [5-(4-chlorophenylsulfonyl)-6-(pyrimidin-5-yl)-4,5,6,7-tetrahydro-1H-pyrazolo[4,3-c]pyridine] | < 50 |
| O=S(=O)(c1ccc(Cl)cc1)N1CCc2n[nH]cc2C1c1nccs1 (stereo not shown) [2-(5-(4-chlorophenylsulfonyl)-4,5,6,7-tetrahydro-2H-pyrazolo[4,3-c]pyridin-4-yl)thiazole] | < 50 |
| O=S(=O)(c1ccc(Cl)cc1)N1CCc2[nH]ncc2C1c1nc2ccccc2[nH]1 (stereo not shown) [4-(1H-Benzoimidazol-2-yl)-5-(4-chloro-benzenesulfonyl)-4,5,6,7-tetrahydro-1H-pyrazolo[4,3-c]pyridine] | 150 to 300 |
| O=S(=O)(c1ccc(Cl)cc1)N1CCc2ncccc2C1c1ccc(Cl)cc1 (stereo not shown) [5-(4-chlorophenyl)-6-(4-chlorophenylsulfonyl)-5,6,7,8-tetrahydro-1,6-naphthyridine] | < 50 |
| O=S(=O)(c1ccc(Cl)cc1)N1Cc2c[nH]nc2CC1c1cc(F)cc(F)c1 (stereo not shown) [5-(4-chlorophenylsulfonyl)-6-(3,5-difluorophenyl)-4,5,6,7-tetrahydro-1H-pyrazolo[4,3-c]pyridine] | < 50 |
| O=S(=O)(c1ccc(Cl)cc1)N1Cc2cn[nH]c2CC1c1cccc(F)c1 (stereo not shown) [5-(4-chlorophenylsulfonyl)-6-(3-fluorophenyl)-4,5,6,7-tetrahydro-1H-pyrazolo[4,3-c]pyridine] | < 50 |
| O=S(=O)(c1ccc(Cl)cc1)N1Cc2cn[nH]c2CC1c1cccnc1 (stereo not shown) [5-(4-chlorophenylsulfonyl)-6-(pyridin-3-yl)-4,5,6,7-tetrahydro-1H-pyrazolo[4,3-c]pyridine] | 50 to 150 |
| O=S(=O)(c1ccc(Cl)cc1)N1Cc2cn[nH]c2CC1c1ccncc1 (stereo not shown) [5-(4-chlorophenylsulfonyl)-6-(pyridin-4-yl)-4,5,6,7-tetrahydro-1H-pyrazolo[4,3-c]pyridine] | 150 to 300 |
| CC(C)C1Cc2n[nH]cc2CN1S(=O)(=O)c1ccc(Cl)cc1 (stereo not shown) [5-(4-chlorophenylsulfonyl)-6-isopropyl-4,5,6,7-tetrahydro-1H-pyrazolo[4,3-c]pyridine] | < 50 |
| O=S(=O)(c1ccc(Cl)s1)N1Cc2cn[nH]c2CC1c1ccccc1 (stereo not shown) [5-(5-chlorothiophen-2-ylsulfonyl)-6-phenyl-4,5,6,7-tetrahydro-1H-pyrazolo[4,3-c]pyridine] | < 50 |
| O=S(=O)(c1ccc(Cl)cc1)N1Cc2c[nH]nc2CC1Cc1ccccc1 (stereo not shown) [6-benzyl-5-(4-chlorophenylsulfonyl)-4,5,6,7-tetrahydro-1H-pyrazolo[4,3-c]pyridine] | 50 to 150 |
| O=S(=O)(c1ccc(Cl)cc1)N1Cc2cccnc2CC1c1ccc(Cl)cc1 (stereo not shown) [7-(4-chlorophenyl)-6-(4-chlorophenylsulfonyl)-5,6,7,8-tetrahydro-1,6-naphthyridine] | 150 to 300 |
| CC[C@@H]1c2c[nH]nc2C[C@H](c2ccc(Cl)cc2)N1S(=O)(=O)c1ccc(Cl)cc1 [(4R,6R)-6-(4-chlorophenyl)-5-(4-chlorophenylsulfonyl)-4-ethyl-4,5,6,7-tetrahydro-1H-pyrazolo[4,3-c]pyridine] | < 50 |
| CC[C@H]1Cc2n[nH]cc2[C@@H](CC)N1S(=O)(=O)c1ccc(F)cc1 [(4R,6S)-4,6-diethyl-5-(4-fluorophenylsulfonyl)-4,5,6,7-tetrahydro-2H-pyrazolo[4,3-c]pyridine] | < 50 |
| CC[C@H]1Cc2[nH]ncc2[C@@H](CC)N1S(=O)(=O)c1ccccn1 [(4R,6S)-4,6-diethyl-5-(pyridin-2-ylsulfonyl)-4,5,6,7-tetrahydro-1H-pyrazolo[4,3-c]pyridine] | 50 to 150 |
| CC[C@@H]1c2cn[nH]c2C(=O)[C@H](CC)N1S(=O)(=O)c1ccc(Cl)cc1 [(4R,6S)-5-(4-chlorophenylsulfonyl)-4,6-diethyl-5,6-dihydro-1H-pyrazolo[4,3-c]pyridin-7(4H)-one] | < 50 |
| C[C@@H]1c2cn[nH]c2C[C@H](C)N1S(=O)(=O)c1ccc(Cl)cc1 [(4R,6S)-5-(4-chlorophenylsulfonyl)-4,6-dimethyl-4,5,6,7-tetrahydro-1H-pyrazolo[4,3-c]pyridine] | < 50 |
| CC[C@@H]1Cc2[nH]ncc2[C@H](CC)N1S(=O)(=O)c1ccc(Cl)cc1 [(4S,6R)-5-(4-chlorophenylsulfonyl)-4,6-diethyl-4,5,6,7-tetrahydro-1H-pyrazolo[4,3-c]pyridine] | 50 to 150 |
| CC[C@@H]1C(=O)c2[nH]ncc2[C@H](CC)N1S(=O)(=O)c1ccc(Cl)cc1 [(4S,6R)-5-(4-chlorophenylsulfonyl)-4,6-diethyl-5,6-dihydro-1H-pyrazolo[4,3-c]pyridin-7(4H)-one] | 150 to 300 |
| O=S(=O)(c1ccc(Cl)cc1)N1Cc2cn[nH]c2CC1CO (stereo not shown) [(5-(4-chlorophenylsulfonyl)-4,5,6,7-tetrahydro-1H-pyrazolo[4,3-c]pyridin-6-yl)methanol] | 150 to 300 |
| O=S(=O)(c1ccc(Cl)cc1)N1[C@@H](CO)Cc2[nH]ncc2[C@H]1CO [((4S,6R)-5-(4-chlorophenylsulfonyl)-4,5,6,7-tetrahydro-1H-pyrazolo[4,3-c]pyridine-4,6-diyl)dimethanol] | 150 to 300 |
| CC[C@@H]1Cc2[nH]ncc2[C@@H](COC(=O)N(C)C)N1S(=O)(=O)c1ccc(Cl)cc1 [((4S,6R)-5-(4-chlorophenylsulfonyl)-6-ethyl-4,5,6,7-tetrahydro-1H-pyrazolo[4,3-c]pyridin-4-yl)methyl dimethylcarbamate] | 150 to 300 |
| CC[C@H]1c2cn[nH]c2C[C@@H](COC(=O)N(C)C)N1S(=O)(=O)c1ccc(Cl)cc1 [((4S,6S)-5-(4-chlorophenylsulfonyl)-4-ethyl-4,5,6,7-tetrahydro-1H-pyrazolo[4,3-c]pyridin-6-yl)methyl dimethylcarbamate] | < 50 |

Now from value to compound:

| IC50 [nM] | Structure (SMILES) |
| --- | --- |
| 150 to 300 | O=S(=O)(c1ccc(Cl)cc1)N1Cc2c[nH]nc2CC1c1nccs1 (stereo not shown) [2-(5-(4-chlorophenylsulfonyl)-4,5,6,7-tetrahydro-2H-pyrazolo[4,3-c]pyridin-6-yl)thiazole] |
| < 50 | CCC1c2cn[nH]c2CC(CO)N1S(=O)(=O)c1ccc(Cl)cc1 (stereo not shown) [5-(4-chlorophenylsulfonyl)-4-ethyl-4,5,6,7-tetrahydro-1H-pyrazolo[4,3-c]pyridin-6-yl)methanol] |
| < 50 | O=S(=O)(c1ccc(Cl)cc1)N1Cc2cn[nH]c2CC1c1ccc(F)cc1 (stereo not shown) [5-(4-chlorophenylsulfonyl)-6-(4-fluorophenyl)-4,5,6,7-tetrahydro-1H-pyrazolo[4,3-c]pyridine] |
| < 50 | O=S(=O)(c1ccc(Cl)cc1)N1Cc2c[nH]nc2CC1c1ccccc1 (stereo not shown) [5-(4-chlorophenylsulfonyl)-6-phenyl-4,5,6,7-tetrahydro-1H-pyrazolo[4,3-c]pyridine] |
| 150 to 300 | O=S(=O)(c1ccc(Cl)cc1)N1Cc2c(C(F)(F)F)n[nH]c2CC1c1ccc(Cl)cc1 (stereo not shown) [6-(4-chlorophenyl)-5-(4-chlorophenylsulfonyl)-3-(trifluoromethyl)-4,5,6,7-tetrahydro-1H-pyrazolo[4,3-c]pyridine] |
| < 50 | CC[C@H]1Cc2n[nH]cc2[C@@H](c2ccc(Cl)cc2)N1S(=O)(=O)c1ccc(Cl)cc1 [(4R,6S)-4-(4-chlorophenyl)-5-(4-chlorophenylsulfonyl)-6-ethyl-4,5,6,7-tetrahydro-1H-pyrazolo[4,3-c]pyridine] |
| < 50 | CC[C@H]1Cc2n[nH]cc2[C@@H](CC)N1S(=O)(=O)c1ccc(Cl)cc1 [(4R,6S)-5-(4-chlorophenylsulfonyl)-4,6-diethyl-4,5,6,7-tetrahydro-1H-pyrazolo[4,3-c]pyridine] |
| 50 to 150 | CC[C@@H]1c2cn[nH]c2/C(=N\O)[C@H](CC)N1S(=O)(=O)c1ccc(Cl)cc1 [(4R,6S,Z)-5-(4-chlorophenylsulfonyl)-4,6-diethyl-5,6-dihydro-1H-pyrazolo[4,3-c]pyridin-7(4H)-one oxime] |
| < 50 | C[C@H]1Cc2[nH]ncc2[C@H](C)N1S(=O)(=O)c1ccc(Cl)cc1 [(4S,6S)-5-(4-chlorophenylsulfonyl)-4,6-dimethyl-4,5,6,7-tetrahydro-1H-pyrazolo[4,3-c]pyridine] |
| 150 to 300 | CC[C@@H]1c2cn[nH]c2C[C@@H](COC(=O)N(C)C)N1S(=O)(=O)c1ccc(Cl)cc1 [((4R,6S)-5-(4-chlorophenylsulfonyl)-4-ethyl-4,5,6,7-tetrahydro-1H-pyrazolo[4,3-c]pyridin-6-yl)methyl dimethylcarbamate] |
| 150 to 300 | CC[C@H]1Cc2[nH]ncc2[C@@H](COC(=O)N(C)C)N1S(=O)(=O)c1ccc(Cl)cc1 [((4S,6S)-5-(4-chlorophenylsulfonyl)-6-ethyl-4,5,6,7-tetrahydro-1H-pyrazolo[4,3-c]pyridin-4-yl)methyl dimethylcarbamate] |
